Measured values published in patent publication US7393853B2, “Use of substituted 8-Perfluoroalkyl-6,7,8,9-tetrahydropyrimido[1,2-a] pyrimidin-4-one derivatives as therapeutic agents” (Sanofi Aventis, priority 2003, dated 2008).
Counter-ions that a name gives are not always drawn.

Columns and labels:
[1] = molecular target: GSK3β (Homo sapiens, UniProt P49841); test: Inhibitory activity against GSK3β (33P-ATP phosphorylation of prephosphorylated GS1 peptide, two protocols); type: biochemical; details: protocol (first or second) not specified
GSK3β, sequence (P49841 whole entry, species assumed): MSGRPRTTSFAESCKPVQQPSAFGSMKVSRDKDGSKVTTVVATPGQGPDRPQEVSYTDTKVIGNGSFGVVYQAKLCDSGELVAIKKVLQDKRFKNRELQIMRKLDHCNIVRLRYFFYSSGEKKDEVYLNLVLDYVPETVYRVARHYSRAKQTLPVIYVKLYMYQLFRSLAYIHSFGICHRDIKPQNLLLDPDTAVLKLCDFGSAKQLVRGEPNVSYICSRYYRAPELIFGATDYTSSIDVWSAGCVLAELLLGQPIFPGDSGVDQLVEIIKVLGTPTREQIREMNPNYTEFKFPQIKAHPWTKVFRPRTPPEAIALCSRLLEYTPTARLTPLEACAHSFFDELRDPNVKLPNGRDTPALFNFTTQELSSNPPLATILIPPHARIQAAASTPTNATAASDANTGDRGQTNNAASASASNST
Method: Inhibitory Activity of the Medicament of the Present Invention Against GSK3β
Two different protocols can be used.
In a first protocol: 7.5 μM of prephosphorylated GS1 peptide and 10 μM ATP (containing 300,000 cpm of 33P-ATP) were incubated in 25 mM Tris-HCl, pH 7.5, 0.6 mM DTT, 6 mM MgCl2, 0.6 mM EGTA, 0.05 mg/ml BSA buffer for 1 hour at room temperature in the presence of GSK3beta (total reaction volume: 100 microliters).
In a second protocol: 4.1 μM of prephosphorylated GS1 peptide and 42 μM ATP (containing 260,000 cpm 33P-ATP) were incubated in 80 mM Mes-NaOH, pH 6.5, 1 mM Mg acetate, 0.5 mM EGTA, 5 mM 2-mercaptoethanol, 0.02% Tween 20, 10% glycerol buffer for 2 hours at room temperature in the presence of GSK3beta.
Inhibitors were solubilized in DMSO (final solvent concentration in the reaction medium, 1%).
The reaction was stopped with 100 microliters of a solution made of 25 g polyphosphoric acid (85% P2O5), 126 ml 85% H3PO4, H2O to 500 ml and then diluted to 1:100 before use. An aliquot of the reaction mixture was then transferred to Whatman P81 cation exchange filters and rinsed with the solution described above. Incorporated 33P radioactivity was determined by liquid scintillation spectrometry.
The phosphorylated GS-1 peptide had the following sequence: […]

| Compound | melting point | IC50 [1] |
| --- | --- | --- |
| N#Cc1ccc(C(=O)CN2c3nc(-c4ccncn4)cc(=O)n3CCC2C(F)(F)F)cc1 (racemic) [compound 17, 9-[2-(4-Cyanophenyl)-2-oxoethyl]-2-pyrimidin-4-yl-8-(trifluoromethyl)-6,7,8,9-tetrahydro-4H-pyrimido[1,2-a]pyrimidin-4-one] | 201 to 203 °C | – |
| O=C(CN1c2nc(-c3ccncn3)cc(=O)n2CCC1C(F)(F)F)c1cccc(F)c1 (racemic) [compound 14, 9-[2-(3-Fluorophenyl)-2-oxoethyl]-2-pyrimidin-4-yl-8-(trifluoromethyl)-6,7,8,9-tetrahydro-4H-pyrimido[1,2-a]pyrimidin-4-one] | 245 to 247 °C | – |
| O=C(CN1c2nc(-c3ccncc3)c(F)c(=O)n2CCC1C(F)(F)F)c1ccccc1 (racemic) [compound 10, 3-Fluoro-9-(2-oxo-2-phenylethyl)-2-pyridin-4-yl-8-(trifluoromethyl)-6,7,8,9-tetrahydro-4H-pyrimido[1,2-a]pyrimidin-4-one] | 241 to 242 °C | – |
| Cc1ccc(C(=O)CN2c3nc(-c4ccncn4)cc(=O)n3CCC2C(F)(F)F)cc1 (racemic) [compound 15, 9-[2-(4-Methylphenyl)-2-oxoethyl]-2-pyrimidin-4-yl-8-(trifluoromethyl)-6,7,8,9-tetrahydro-4H-pyrimido[1,2-a]pyrimidin-4-one] | 239 to 241 °C | – |
| O=C(CN1c2nc(-c3ccncn3)cc(=O)n2CCC1C(F)(F)F)c1cccc(Br)c1 (racemic) [compound 13, 9-[2-(3-Bromophenyl)-2-oxoethyl]-2-pyrimidin-4-yl-8-(trifluoromethyl)-6,7,8,9-tetrahydro-4H-pyrimido[1,2-a]pyrimidin-4-one] | 236 to 238 °C | – |
| O=C(CN1c2nc(-c3ccncn3)cc(=O)n2CCC1C(F)(F)F)c1ccc(-c2ccccc2)cc1 (racemic) [compound 18, 9-(2-biphenyl-4-yl-2-oxoethyl)-2-pyrimidin-4-yl-8-(trifluoromethyl)-6,7,8,9-tetrahydro-4H-pyrimido[1,2-a]pyrimidin-4-one] | 231 to 233 °C | – |
| O=C(CN1c2nc(-c3ccncc3)cc(=O)n2CCC1C(F)(F)F)c1ccccc1 (single isomer, unassigned; (-)) [compound 6, (−)-9-(2-Oxo-2-phenyl-ethyl)-2-(4-pyridinyl)-8-(trifluoromethyl)-6,7,8,9-tetrahydro-4H-pyrimido[1,2-a]pyrimidin-4-one hydrochloride (1:1).] | – | 3 nM |
| O=C(CN1c2nc(-c3ccncn3)cc(=O)n2CCC1C(F)(F)F)c1ccc(F)cc1 (racemic) [compound 16, 9-[2-(4-Fluorophenyl)-2-oxoethyl]-2-pyrimidin-4-yl-8-(trifluoromethyl)-6,7,8,9-tetrahydro-4H-pyrimido[1,2-a]pyrimidin-4-one] | 253 to 255 °C | – |
| O=c1cc(-c2ccncn2)nc2n1CCC(C(F)(F)F)N2Cc1ccccc1 (racemic) [compound 11, 9-(Phenylmethyl)-2-pyrimidin-4-yl-8-(trifluoromethyl)-6,7,8,9-tetrahydro-4H-pyrimido[1,2-a]pyrimidin-4-one] | 177 to 179 °C | – |
| O=c1cc(-c2ccncn2)nc2n1CCC(C(F)(F)F)N2CCc1ccccc1 (racemic) [compound 12, 9-(2-Phenylethyl)-2-pyrimidin-4-yl-8-(trifluoromethyl)-6,7,8,9-tetrahydro-4H-pyrimido[1,2-a]pyrimidin-4-one] | 147 to 149 °C | – |
